What was measured:
SREBP-2 = SREBP-2 (Homo sapiens (Human), UniProt Q12772); assay: In vitro assay SREBP-2: PathHunter U2OS SREBP-2 Nuclear Translocation Cell Line, U18666A-stimulated; assay type: cell-based; conditions: PathHunter U2OS SREBP-2 nuclear translocation cells, U18666A 10 μM, overnight (16 hours)
LXRβ = LXRβ (Homo sapiens (Human), UniProt P55055); assay: In vitro assay LXRβ: PathHunter NHR CHO cells, LXRβ / Steroid Receptor Co-activator Peptide enzyme fragment complementation; assay type: cell-based; conditions: PathHunter NHR CHO cells, full-length human LXRβ and SRCP, chemiluminescent signal; read-out: LXRβ PPI
Outline: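 Enzyme fragment complementation read-out: CHO cells stably expressing ProLink-tagged full-length human LXRβ plus nuclear enzyme acceptor–SRCP fusion, seeded and held overnight at 37° C. Medium with charcoal-dextran filtered serum; final vehicle 1%. Chemiluminescence measured after signal generation.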

Sequence of LXRβ (P55055 whole entry, the tested form may be a part): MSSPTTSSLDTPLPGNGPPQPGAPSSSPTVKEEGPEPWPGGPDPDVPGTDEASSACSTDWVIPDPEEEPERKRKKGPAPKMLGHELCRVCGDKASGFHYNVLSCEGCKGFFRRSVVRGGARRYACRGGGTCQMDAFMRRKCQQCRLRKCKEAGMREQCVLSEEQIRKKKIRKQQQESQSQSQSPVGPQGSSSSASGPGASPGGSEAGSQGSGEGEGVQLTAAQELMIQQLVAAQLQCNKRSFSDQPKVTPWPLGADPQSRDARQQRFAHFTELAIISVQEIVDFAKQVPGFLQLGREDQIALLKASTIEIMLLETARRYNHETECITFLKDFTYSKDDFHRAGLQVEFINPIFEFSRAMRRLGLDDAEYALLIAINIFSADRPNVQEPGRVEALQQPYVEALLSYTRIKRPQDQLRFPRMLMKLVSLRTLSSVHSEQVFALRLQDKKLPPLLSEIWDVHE

SMILES | IC50 (SREBP-2) | EC50 (LXRβ)
Cc1cccnc1OC[C@@H](C)[C@H]1CC[C@H]2[C@@H]3CC=C4C[C@@H](O)CC[C@]4(C)[C@H]3CC[C@]12C [Example 261, (3S,8S,9S,10R,13S,14S,17R)-10,13-dimethyl-17-((S)-1-((3-methylpyridin-2-yl)oxy)propan-2-yl)-2,3,4,7,8,9,10,11,12,13,14,15,16,17-tetradecahydro-1H-cyclopenta[a]phenanthren-3-ol] | < 250 nM | > 10000 nM
C[C@H](CCC(=O)N1CCC(CO)CC1)[C@H]1CC[C@H]2[C@@H]3CC=C4C[C@@H](O)CC[C@]4(C)[C@H]3CC[C@]12C [Example 376, (4R)-4-[(1R,3aS,3bS,7S,9aR,9bS,11aR)-7-hydroxy-9a,11a-dimethyl-1H,2H,3H,3aH,3bH,4H,6H,7H,8H,9H,9aH,9bH,10H,11H,11aH-cyclopenta[a]phenanthren-1-yl]-1-[4-(hydroxymethyl)piperidin-1-yl]pentan-1-one] | < 250 nM | 250 to 1000 nM
C[C@H](CCC(=O)N1CCC(C(C)(C)O)CC1)[C@H]1CC[C@H]2[C@@H]3CC=C4C[C@@H](O)CC[C@]4(C)[C@H]3CC[C@]12C [Example 378, (R)-4-((3S,8S,9S,10R,13R,14S,17R)-3-hydroxy-10,13-dimethyl-2,3,4,7,8,9,10,11,12,13,14,15,16,17-tetradecahydro-1H-cyclopenta[a]phenanthren-17-yl)-1-(4-(2-hydroxypropan-2-yl)piperidin-1-yl)pentan-1-one] | < 250 nM | > 10000 nM
CCC(=O)N1CCN(C(=O)CC[C@@H](C)[C@H]2CC[C@H]3[C@@H]4CC=C5C[C@@H](O)CC[C@]5(C)[C@H]4CC[C@]23C)[C@@H](C)C1 [Example 583, (4R)-4-[(1R,3aS,3bS,7S,9aR,9bS,11aR)-7-hydroxy-9a,11a-dimethyl-1H,2H,3H,3aH,3bH,4H,6H,7H,8H,9H,9aH,9bH,10H,11H,11aH-cyclopenta[a]phenanthren-1-yl]-1-[(2S)-2-methyl-4-propanoylpiperazin-1-yl]pentan-1-one] | < 250 nM | > 10000 nM
C[C@H](CCC(=O)N(C)CCc1nccs1)[C@H]1CC[C@H]2[C@@H]3CC=C4C[C@@H](O)CC[C@]4(C)[C@H]3CC[C@]12C [Example 545, (R)-4-((3S,8S,9S,10R,13R,14S,17R)-3-hydroxy-10,13-dimethyl-2,3,4,7,8,9,10,11,12,13,14,15,16,17-tetradecahydro-1H-cyclopenta[a]phenanthren-17-yl)-N-methyl-N-(2-(thiazol-2-yl)ethyl)pentanamide] | 250 to 1000 nM | 250 to 1000 nM
CC(=O)N1CCCN(C(=O)CC[C@@H](C)[C@H]2CC[C@H]3[C@@H]4CC=C5C[C@@H](O)CC[C@]5(C)[C@H]4CC[C@]23C)CC1 [Example 317, (R)-1-(4-acetyl-1,4-diazepan-1-yl)-4-((3S,8S,9S,10R,13R,14S,17R)-3-hydroxy-10,13-dimethyl-2,3,4,7,8,9,10,11,12,13,14,15,16,17-tetradecahydro-1H-cyclopenta[a]phenanthren-17-yl)pentan-1-one] | < 250 nM | > 10000 nM
COC(=O)N1CCC(C(=O)NC[C@@H](C)[C@H]2CC[C@H]3[C@@H]4CC=C5C[C@@H](O)CC[C@]5(C)[C@H]4CC[C@]23C)CC1 [Example 591, Methyl 4-{[(2S)-2-[(1R,3aS,3bS,7S,9aR,9bS,11aS)-7-hydroxy-9a,11a-dimethyl-1H,2H,3H,3aH,3bH,4H,6H,7H,8H,9H,9aH,9bH,10H,11H,11aH-cyclopenta[a]phenanthren-1-yl]propyl]carbamoyl}piperidine-1-carboxylate] | < 250 nM | > 10000 nM
C[C@H](CCC(=O)N1CCN(C(=O)N(C)CC2CC2)C[C@@H]1C)[C@H]1CC[C@H]2[C@@H]3CC=C4C[C@@H](O)CC[C@]4(C)[C@H]3CC[C@]12C [Example 637, (S)—N-(cyclopropylmethyl)-4-((R)-4-((3S,8S,9S,10R,13R,14S,17R)-3-hydroxy-10,13-dimethyl-2,3,4,7,8,9,10,11,12,13,14,15,16,17-tetradecahydro-1H-cyclopenta[a]phenanthren-17-yl)pentanoyl)-N,3-dimethylpiperazine-1-carboxamide] | < 250 nM | > 10000 nM
C[C@H](CCC(=O)N1CCN(C(=O)c2ccncn2)CC1)[C@H]1CC[C@H]2[C@@H]3CC=C4C[C@@H](O)CC[C@]4(C)[C@H]3CC[C@]12C [Example 334, (R)-4-((3S,8S,9S,10R,13R,14S,17R)-3-hydroxy-10,13-dimethyl-2,3,4,7,8,9,10,11,12,13,14,15,16,17-tetradecahydro-1H-cyclopenta[a]phenanthren-17-yl)-1-(4-(pyrimidine-4-carbonyl)piperazin-1-yl)pentan-1-one] | < 250 nM | > 10000 nM
CCC1(O)CCN(C(=O)OC[C@@H](C)[C@H]2CC[C@H]3[C@@H]4CC=C5C[C@@H](O)CC[C@]5(C)[C@H]4CC[C@]23C)CC1 [Example 348, (S)-2-((3S,8S,9S,10R,13S,14S,17R)-3-hydroxy-10,13-dimethyl-2,3,4,7,8,9,10,11,12,13,14,15,16,17-tetradecahydro-1H-cyclopenta [a]phenanthren-17-yl)propyl 4-ethyl-4-hydroxypiperidine-1-carboxylate] | < 250 nM | > 10000 nM
C[C@H](CCc1cccnc1)[C@H]1CC[C@H]2[C@@H]3CC=C4C[C@@H](O)CC[C@]4(C)[C@H]3CC[C@]12C [Example 159, (3S,8S,9S,10R,13R,14S,17R)-10,13-dimethyl-17-((R)-4-(pyridin-3-yl)butan-2-yl)-2,3,4,7,8,9,10,11,12,13,14,15,16,17-tetradecahydro-1H-cyclopenta[a]phenanthren-3-ol] | < 250 nM | > 10000 nM
COC(=O)N1CCSC12CN(C(=O)CC[C@@H](C)[C@H]1CC[C@H]3[C@@H]4CC=C5C[C@@H](O)CC[C@]5(C)[C@H]4CC[C@]13C)C2 [Example 553, Methyl 2-((R)-4-((3S,8S,9S,10R,13R,14S,17R)-3-hydroxy-10,13-dimethyl-2,3,4,7,8,9,10,11,12,13,14,15,16,17-tetradecahydro-1H-cyclopenta[a]phenanthren-17-yl)pentanoyl)-5-thia-2,8-diazaspiro[3.4]octane-δ-carboxylate] | 250 to 1000 nM | > 10000 nM
COc1cc(N2CCN(C(=O)CC[C@@H](C)[C@H]3CC[C@H]4[C@@H]5CC=C6C[C@@H](O)CC[C@]6(C)[C@H]5CC[C@]34C)CC2)ncn1 [Example 203, (4R)-4-[(1R,3aS,3bS,7S,9aR,9bS,11aR)-7-hydroxy-9a,11a-dimethyl-1H,2H,3H,3aH,3bH,4H,6H,7H,8H,9H,9aH,9bH,10H,11H,11aH-cyclopenta[a]phenanthren-1-yl]-1-[4-(6-methoxypyrimidin-4-yl)piperazin-1-yl]pentan-1-one] | < 250 nM | > 10000 nM
C[C@H](CCC(=O)N1CCN(C(=O)c2ccncc2)C[C@@H]1C)[C@H]1CC[C@H]2[C@@H]3CC=C4C[C@@H](O)CC[C@]4(C)[C@H]3CC[C@]12C [Example 590, (R)-4-((3S,8S,9S,10R,13R,14S,17R)-3-hydroxy-10,13-dimethyl-2,3,4,7,8,9,10,11,12,13,14,15,16,17-tetradecahydro-1H-cyclopenta[a]phenanthren-17-yl)-1-((S)-4-isonicotinoyl-2-methylpiperazin-1-yl)pentan-1-one] | < 250 nM | > 10000 nM
CC(=O)N1C[C@@H]2CN(C(=O)CC[C@@H](C)[C@H]3CC[C@H]4[C@@H]5CC=C6C[C@@H](O)CC[C@]6(C)[C@H]5CC[C@]34C)C[C@@H]2C1 [Example 318, (4R)-1-[(3aR,6aS)-5-acetyl-octahydropyrrolo[3,4-c]pyrrol-2-yl]-4-[(1R,3aS,3bS,7S,9aR,9bS,11aR)-7-hydroxy-9a,11a-dimethyl-1H,2H,3H,3aH,3bH,4H,6H,7H,8H,9H,9aH,9bH,10H,11H,11aH-cyclopenta[a]phenanthren-1-yl]pentan-1-one] | 250 to 1000 nM | > 10000 nM
COc1ccccc1C1CCN(C(=O)CC[C@@H](C)[C@H]2CC[C@H]3[C@@H]4CC=C5C[C@@H](O)CC[C@]5(C)[C@H]4CC[C@]23C)CC1 [Example 623, (R)-4-((3S,8S,9S,10R,13R,14S,17R)-3-hydroxy-10,13-dimethyl-2,3,4,7,8,9,10,11,12,13,14,15,16,17-tetradecahydro-1H-cyclopenta[a]phenanthren-17-yl)-1-(4-(2-methoxyphenyl)piperidin-1-yl)pentan-1-one] | < 250 nM | 1000 to 10000 nM
C[C@H](COC(=O)N(C)CCO)[C@H]1CC[C@H]2[C@@H]3CC=C4C[C@@H](O)CC[C@]4(C)[C@H]3CC[C@]12C [Example 350, (2S)-2-[(1R,3aS,3bS,7S,9aR,9bS,11aS)-7-hydroxy-9a,11a-dimethyl-1H,2H,3H,3aH,3bH,4H,6H,7H,8H,9H,9aH,9bH,10H,11H,11aH-cyclopenta[a]phenanthren-1-yl]propyl N-(2-hydroxyethyl)-N-methylcarbamate] | 250 to 1000 nM | > 10000 nM
C[C@H](CCC(=O)N1CCN(C(=O)OC2CC2)[C@@H](C)C1)[C@H]1CC[C@H]2[C@@H]3CC=C4C[C@@H](O)CC[C@]4(C)[C@H]3CC[C@]12C [Example 570, Cyclopropyl(S)-4-((R)-4-((3S,8S,9S,10R,13R,14S,17R)-3-hydroxy-10,13-dimethyl-2,3,4,7,8,9,10,11,12,13,14,15,16,17-tetradecahydro-1H-cyclopenta[a]phenanthren-17-yl)pentanoyl)-2-methylpiperazine-1-carboxylate] | < 250 nM | > 10000 nM
CNC(=O)c1ccc(OC[C@@H](C)[C@H]2CC[C@H]3[C@@H]4CC=C5C[C@@H](O)CC[C@]5(C)[C@H]4CC[C@]23C)nc1 [Example 255, 6-((S)-2-((3S,8S,9S,10R,13S,14S,17R)-3-hydroxy-10,13-dimethyl-2,3,4,7,8,9,10,11,12,13,14,15,16,17-tetradecahydro-1H-cyclopenta[a]phenanthren-17-yl)propoxy)-N-methylnicotinamide] | < 250 nM | > 10000 nM

From patent US20230340011A1 (Asteroid Therapeutics, priority 2022, published 2023)
